# In patent US11802111B2, “Cyclobutyl amide monoacylglycerol lipase modulators” (Janssen Pharmaceutica NV, priority 2020, dated 2023):
# Biological target: human MGL from HeLa cells (Homo sapiens (Human), UniProt Q99685)
# Experiment: MGL in vitro activity assay ([glycerol-1,3-3H]-oleoyl glycerol hydrolysis, activated carbon filtration)
# Assay type: biochemical
# Details: 300 nM [Glycerol-1,3-3H]-oleoyl glycerol, one hour
# Outline: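 Endogenous human MGL in HeLa cells/homogenates incubated 1 h with test compounds and 300 nM [glycerol-1,3-3H]-oleoyl glycerol. Released 3H-glycerol passing an activated carbon filter counted as activity; screening at 10 μM compound, top IC50 concentration set empirically.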
# human MGL from HeLa cells, sequence (Q99685 whole entry): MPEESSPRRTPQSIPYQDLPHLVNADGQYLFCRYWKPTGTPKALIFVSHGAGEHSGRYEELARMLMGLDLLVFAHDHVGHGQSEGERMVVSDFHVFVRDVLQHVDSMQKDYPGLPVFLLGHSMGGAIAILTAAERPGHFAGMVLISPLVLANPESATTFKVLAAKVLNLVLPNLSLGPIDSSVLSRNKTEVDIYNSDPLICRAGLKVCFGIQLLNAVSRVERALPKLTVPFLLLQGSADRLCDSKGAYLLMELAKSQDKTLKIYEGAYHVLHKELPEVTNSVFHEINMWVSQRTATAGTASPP
row,IC50 [nM],Structure (SMILES)
1,32,"Cc1ccc(OC2CCC3(CC2)CN(C(=O)[C@H]2C[C@@](C)(O)C2)C3)cc1C [Example 405, (7-(3,4-Dimethylphenoxy)-2-azaspiro[3.5]nonan-2-yl)((1s,3s)-3-hydroxy-3-methylcyclobutyl)methanone]"
2,21,"Cc1cc(OC2CCC3(C2)CN(C(=O)[C@H]2C[C@@](C)(O)C2)C3)ccc1C(F)(F)F (mixture of isomers) [Example 254, (rac)-((1s,3s)-3-Hydroxy-3-methylcyclobutyl)(6-(3-methyl-4-(trifluoromethyl)phenoxy)-2-azaspiro[3.4]octan-2-yl)methanone]"
3,9.7,"COc1cc(Cl)cnc1OC1CCC2(CC1)CN(C(=O)[C@H]1C[C@@](C)(O)C1)C2 [Example 463, (7-((5-Chloro-3-methoxypyridin-2-yl)oxy)-2-azaspiro[3.5]nonan-2-yl)((1s,3s)-3-hydroxy-3-methylcyclobutyl)methanone]"
4,9.9,"Cc1cc(F)ccc1CC1CC2(C1)CN(C(=O)[C@H]1C[C@@](C)(O)C1)C2 [Example 273, (6-(4-Fluoro-2-methylbenzyl)-2-azaspiro[3.3]heptan-2-yl)((1s,3s)-3-hydroxy-3-methylcyclobutyl)methanone]"
5,541,"Cc1ccccc1OC1CC2(C1)CN(C(=O)[C@H]1C[C@@](C)(O)C1)C2 [Example 238, ((1s,3s)-3-Hydroxy-3-methylcyclobutyl)(6-(o-tolyloxy)-2-azaspiro[3.3]heptan-2-yl)methanone]"
6,81,"COc1ccnc(OC2CCC3(CC2)CN(C(=O)[C@H]2C[C@@](C)(O)C2)C3)c1Cl [Example 464, (7-((3-Chloro-4-methoxypyridin-2-yl)oxy)-2-azaspiro[3.5]nonan-2-yl)((1s,3s)-3-hydroxy-3-methylcyclobutyl)methanone]"
7,61,"Cc1nc(OC2CC3(CCN(C(=O)[C@H]4C[C@@](C)(O)C4)CC3)C2)ccc1C(F)(F)F [Example 482, ((1s,3s)-3-Hydroxy-3-methylcyclobutyl)(2-((6-methyl-5-(trifluoromethyl)pyridin-2-yl)oxy)-7-azaspiro[3.5]nonan-7-yl)methanone]"
8,0.84,"COC1(c2cc(C)cc(C)c2)CCC2(CC1)CN(C(=O)[C@H]1C[C@@](C)(O)C1)C2 [Example 344, (7-(3,5-Dimethylphenyl)-7-methoxy-2-azaspiro[3.5]nonan-2-yl)((1s,3s)-3-hydroxy-3-methylcyclobutyl)methanone]"
9,0.76,"Cc1cc(C(F)(F)F)cnc1OC1CCC2(CC1)CN(C(=O)[C@H]1C[C@@](C)(O)C1)C2 [Example 446, ((1s,3s)-3-Hydroxy-3-methylcyclobutyl)(7-((3-methyl-5-(trifluoromethyl)pyridin-2-yl)oxy)-2-azaspiro[3.5]nonan-2-yl)methanone]"
10,37,"Cc1nc(CC2CC3(C2)CN(C(=O)[C@H]2C[C@@](C)(O)C2)C3)ccc1OC(F)F [Example 280, (6-((5-(Difluoromethoxy)-6-methylpyridin-2-yl)methyl)-2-azaspiro[3.3]heptan-2-yl)((1s,3s)-3-hydroxy-3-methylcyclobutyl)methanone]"
11,36,"Cc1ccc([C@H]2CCC3(C2)CN(C(=O)[C@H]2C[C@@](C)(O)C2)C3)c(C)c1 (stereo in doubt) [Example 321, ((*S)-6-(2,4-Dimethylphenyl)-2-azaspiro[3.4]octan-2-yl)((1s,3*R)-3-hydroxy-3-methylcyclobutyl)methanone]"
12,3.8,"Cc1cn(C)c2nc(CC3CC4(C3)CN(C(=O)[C@H]3C[C@@](C)(O)C3)C4)ccc12 [Example 291, (6-((1,3-Dimethyl-1H-pyrrolo[2,3-b]pyridin-6-yl)methyl)-2-azaspiro[3.3]heptan-2-yl)((1s,3s)-3-hydroxy-3-methylcyclobutyl)methanone]"
13,326,"Cc1cc(C)cc([C@H]2CC[C@]3(CC2)CN(C(=O)[C@H]2C[C@@](C)(O)C2)[C@H]3C)c1 (stereo in doubt) [Example 348, ((1*S,4r,7*S)-7-(3,5-Dimethylphenyl)-1-methyl-2-azaspiro[3.5]nonan-2-yl)((1s,3*R)-3-hydroxy-3-methylcyclobutyl)methanone]"
14,1.3,"COc1nc(OC2CCC3(CC2)CN(C(=O)[C@H]2C[C@@](C)(O)C2)C3)ccc1C1CC1 [Example 455, (7-((5-Cyclopropyl-6-methoxypyridin-2-yl)oxy)-2-azaspiro[3.5]nonan-2-yl)((1s,3s)-3-hydroxy-3-methylcyclobutyl)methanone]"
15,1.9,"Cc1ccc(C(F)(F)F)cc1OC1CCC2(CC1)CN(C(=O)[C@H]1C[C@@](C)(O)C1)C2 [Example 416, ((1s,3s)-3-Hydroxy-3-methylcyclobutyl)(7-(2-methyl-5-(trifluoromethyl)phenoxy)-2-azaspiro[3.5]nonan-2-yl)methanone]"

# More lines, now with the values behind:
row,Structure (SMILES),IC50 [nM]
1,"C[C@]1(O)C[C@@H](C(=O)N2CC3(CC(Cc4cccnc4)C3)C2)C1 [Example 168, ((1s,3s)-3-Hydroxy-3-methylcyclobutyl)(6-(pyridin-3-ylmethyl)-2-azaspiro[3.3]heptan-2-yl)methanone]",1370
2,"C[C@]1(O)C[C@@H](C(=O)N2CC3(CCC(c4cccc(C5CC5)c4)C3)C2)C1 (mixture of isomers) [Example 58, (rac)-(6-(3-Cyclopropylphenyl)-2-azaspiro[3.4]octan-2-yl)((1s,3s)-3-hydroxy-3-methylcyclobutyl)methanone]",41
3,"C[C@]1(O)C[C@@H](C(=O)N2CC3(CC[C@H](Cc4cccc(C(F)(F)F)c4)C3)C2)C1 (stereo in doubt) [Example 177, ((1s,3*S)-3-Hydroxy-3-methylcyclobutyl)((*R)-6-(3-(trifluoromethyl)benzyl)-2-azaspiro[3.4]octan-2-yl)methanone]",14
4,"Cn1ncc2cc(C3CCC4(C3)CN(C(=O)[C@H]3C[C@@](C)(O)C3)C4)ccc21 (mixture of isomers) [Example 102, (rac)-((1s,3s)-3-Hydroxy-3-methylcyclobutyl)(6-(1-methyl-1H-indazol-5-yl)-2-azaspiro[3.4]octan-2-yl)methanone]",301
5,"Cc1ccc(CC2CC3(C2)CN(C(=O)[C@H]2C[C@@](C)(O)C2)C3)c(C(F)(F)F)c1 [Example 213, ((1s,3s)-3-Hydroxy-3-methylcyclobutyl)(6-(4-methyl-2-(trifluoromethyl)benzyl)-2-azaspiro[3.3]heptan-2-yl)methanone]",4.1
6,"Cc1cc(OC(F)F)cc(C2CCC3(C2)CN(C(=O)[C@H]2C[C@@](C)(O)C2)C3)c1 (mixture of isomers) [Example 84, (rac)-(6-(3-(Difluoromethoxy)-5-methylphenyl)-2-azaspiro[3.4]octan-2-yl)((1s,3s)-3-hydroxy-3-methylcyclobutyl)methanone]",47
7,"C[C@]1(O)C[C@@H](C(=O)N2CC3(CC(Cc4ccc(OC(F)(F)F)cc4)C3)C2)C1 [Example 220, ((1s,3s)-3-Hydroxy-3-methylcyclobutyl)(6-(4-(trifluoromethoxy)benzyl)-2-azaspiro[3.3]heptan-2-yl)methanone]",1.1
8,"Cc1cc([C@@H]2CCC3(C2)CN(C(=O)[C@H]2C[C@@](C)(O)C2)C3)ccc1OC(F)F (stereo in doubt) [Example 73, ((*R)-6-(4-(Difluoromethoxy)-3-methylphenyl)-2-azaspiro[3.4]octan-2-yl)((1s,3*S)-3-hydroxy-3-methylcyclobutyl)methanone]",8.1
9,"Cc1ccc(CC2CCC3(C2)CN(C(=O)[C@H]2C[C@@](C)(O)C2)C3)cc1 (mixture of isomers) [Example 169, (rac)-((1s,3s)-3-Hydroxy-3-methylcyclobutyl)(6-(4-methylbenzyl)-2-azaspiro[3.4]octan-2-yl)methanone]",36
10,"COc1cccc(CC2CC3(C2)CN(C(=O)[C@H]2C[C@@](C)(O)C2)C3)n1 [Example 191, ((1s,3s)-3-Hydroxy-3-methylcyclobutyl)(6-((6-methoxypyridin-2-yl)methyl)-2-azaspiro[3.3]heptan-2-yl)methanone]",159
11,"CC(C)c1cccc([C@H]2CCC3(C2)CN(C(=O)[C@H]2C[C@@](C)(O)C2)C3)c1 (stereo in doubt) [Example 48, ((1s,3*R)-3-Hydroxy-3-methylcyclobutyl)((*S)-6-(3-isopropylphenyl)-2-azaspiro[3.4]octan-2-yl)methanone]",17
12,"C[C@]1(O)C[C@@H](C(=O)N2CC3(CCC(Cc4ccc(C5CC5)cc4)C3)C2)C1 (mixture of isomers) [Example 200, (rac)-(6-(4-Cyclopropylbenzyl)-2-azaspiro[3.4]octan-2-yl)((1s,3s)-3-hydroxy-3-methylcyclobutyl)methanone]",6.9
13,"Cc1cc(C2CCC3(C2)CN(C(=O)[C@H]2C[C@@](C)(O)C2)C3)ccc1OC(F)F (mixture of isomers) [Example 72, (rac)-(6-(4-(Difluoromethoxy)-3-methylphenyl)-2-azaspiro[3.4]octan-2-yl)((1s,3s)-3-hydroxy-3-methylcyclobutyl)methanone]",4.6
14,"Cc1cc(C2CCC3(C2)CN(C(=O)[C@H]2C[C@@](C)(O)C2)C3)cc(C(F)(F)F)c1 (mixture of isomers) [Example 77, (rac)-((1s,3s)-3-Hydroxy-3-methylcyclobutyl)(6-(3-methyl-5-(trifluoromethyl)phenyl)-2-azaspiro[3.4]octan-2-yl)methanone]",12
15,"CC(C)(C)c1cccc(C2CCC3(C2)CN(C(=O)[C@H]2C[C@@](C)(O)C2)C3)n1 (mixture of isomers) [Example 29, (rac)-(6-(6-(tert-Butyl)pyridin-2-yl)-2-azaspiro[3.4]octan-2-yl)((1s,3s)-3-hydroxy-3-methylcyclobutyl)methanone]",7.7
16,"CCc1cc(OC)cc(C2CCC3(CC2)CN(C(=O)[C@H]2C[C@@](C)(O)C2)C3)c1 [Example 145, (7-(3-Ethyl-5-methoxyphenyl)-2-azaspiro[3.5]nonan-2-yl)((1s,3s)-3-hydroxy-3-methylcyclobutyl)methanone]",31
17,"Cc1cc([C@H]2CCC3(C2)CN(C(=O)[C@H]2C[C@@](C)(O)C2)C3)ccc1OC(F)F (stereo in doubt) [Example 74, ((*S)-6-(4-(Difluoromethoxy)-3-methylphenyl)-2-azaspiro[3.4]octan-2-yl)((1s,3*R)-3-hydroxy-3-methylcyclobutyl)methanone]",6.8
